Common to all, as to type: cell-based
The subject of assay [1] is P. falciparum 3D7 gametocytes. The experiment in a line: P. falciparum gametocyte viability assay. The settings on record: Plasmodium falciparum, 72 hours, Cell-titer glo, read-out: IC50 erythocytic stage (P. falciparum) sexual (IV & V). On the procedure: P. falciparum 3D7 stage Ill-V gametocytes were isolated by discontinuous Percoll gradient centrifugation of parasite cultures treated with 50 mM N-acetyl-D-glucosamine for 3 days to kill asexual parasites. Gametocytes (1.0×10^5) were seeded in 96-well plates and incubated with compounds for 72 hours. In vitro anti-gametocyte activity was measured using Cell-titer glo (Promega).

In the next assay the test system is P. falciparum V1/3. The experiment in a line: In vitro P. falciparum blood-stage assay, strain V1/3. The note with it: Plasmodium falciparum. The method, then: (§1) Strains of Plasmodium falciparum (Dd2, 3D7, D6, K1, NF54, V1/3, HB3, 7G8, FCB, TM90C2B) were obtained from Malaria Research and Reference Reagent Resource Center (MR4). P. falciparum isolates were maintained with O-positive human blood in an atmosphere of 93% N2, 4% CO2, 3% O2 at 37° C. in complete culturing medium (10.4 g/L RPMI 1640, 5.94 g/L HEPES, 5 g/L albumax II, 50 mg/L hypoxanthine, 2.1 g/L sodium bicarbonate, 10% human serum and 43 mg/L gentamicin). Parasites were cultured in medium until the parasitemia reached 3-8%. Parasitemia was determined by checking at least 500 red blood cells from a Giemsa-stained blood smear. For the compound screening, a parasite suspension at 2.0% parasitemia and 2.0% hematocrit was created with medium. 25 μl of medium was dispensed into 384-well, black, clear-bottom plates. 100 nl of compounds in DMSO was transferred into the assay plates along with control compound (mefloquine). Next, 25 μl of the parasite suspension in medium was dispensed into the assay plates such that the final parasitemia was 1% and the final hematocrit was 1%. The assay plates were incubated for 72 hours at 37° C. […] The assay plates were read with 505 dichroic mirrors with 485-nm excitation and 530-nm emission settings.

Another assay relates to P. falciparum TM90C2B. The experiment in a line: In vitro P. falciparum blood-stage assay, strain TM90C2B. The note with it: Plasmodium falciparum. The method, then:
as §1

In a further assay the test system is P. falciparum HB3. Nature of the assay: In vitro P. falciparum blood-stage assay, strain HB3. The note with it: Plasmodium falciparum. On the procedure: as §1
For the next assay, the system named is P. falciparum 3D7. The experiment in a line: In vitro P. falciparum blood-stage assay, strain 3D7. The settings on record: Plasmodium falciparum. On the procedure: as §1
The test system of the next assay is P. falciparum K1. Nature of the assay: In vitro P. falciparum blood-stage assay, strain K1. The note with it: Plasmodium falciparum. The method, then:
as §1

The subject of the next assay is P. falciparum Dd2. The experiment in a line: In vitro P. falciparum blood-stage assay, strain Dd2. The note with it: Plasmodium falciparum. The method, then:
as §1

Assay [2] deals with P. berghei (ANKA GFP-luc). The experiment in a line: In vitro P. berghei liver-stage assay in HepG2 cells. The settings on record: Plasmodium berghei, 48 hour incubation, read-out: IC50 exo-erythrocytic stage P. berghei. On the procedure:
In vitro P. berghei liver-stage assay HepG2 cells were maintained in DMEM, 10% (vol/vol) FBS (Sigma), and 1% (vol/vol) antibiotic-antimycotic in a standard tissue culture incubator (37° C., 5% CO2). P. berghei (ANKA GFP-luc) infected Anopheles stephensi mosquitoes were obtained from the New York University Langone Medical Center Insectary (New York). For assays, ˜17,500 HepG2 cells per well were added to a 384-well microtiter plate in duplicate. After 18-24 h at 37° C. the media was exchanged and compounds were added. After 1 hour, parasites obtained from freshly dissected mosquitoes were added to the plates (4,000 parasites per well), the plates were spun for 10 min at 1,000 rpm, and then the plates were incubated at 37° C. The final assay volume was 30 μL. After a 48 hour incubation at 37° C., Bright-Glo (Promega) was added to the parasite plate to measure relative luminescence. The relative signal intensity of each plate was evaluated with an EnVision (PerkinElmer) system.

The subject of assay [3] is Dd2 strain of P. falciparum. Nature of the assay: Activity against the Dd2 strain of P. falciparum (SYBR Green I, 72-h incubation). The note with it: Plasmodium falciparum, DD2, 72 h, read-out: EC^50 Dd2. In short, it runs like this:
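Dd2 parasites at 1% parasitemia and 1.0% hematocrit in albumax II screening medium, 72 h at 37° C under 93% N2/4% CO2/3% O2; final DMSO 0.125%. Growth read as SYBR Green I fluorescence (485/530 nm) after lysis and 24 h staining. 20 μM mefloquine defined background, DMSO baseline.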

The test system of a further assay is P. falciparum NF54. Nature of the assay: In vitro P. falciparum blood-stage assay, strain NF54. The note with it: Plasmodium falciparum. On the procedure: as §1
For the next assay, the system named is P. falciparum D6. Nature of the assay: In vitro P. falciparum blood-stage assay, strain D6. The settings on record: Plasmodium falciparum. On the procedure: as §1

What is called IC50 is the concentration at which inhibition is half-maximal.

As to `COc1ccc2c3c([nH]c2c1)[C@H](CO)N(C(C)=O)CC31CCN(C(=O)Nc2ccccc2F)CC1` [Compound 15, (R)-2′-acetyl-N-(2-fluorophenyl)-1′-(hydroxymethyl)-7′-methoxy-1′,2′,3′,9′-tetrahydrospiro [piperidine-4,4′-pyrido[3,4-b]indole]-1-carboxamide], the IC50 in assay [1] is 643 nM; in the assay on P. falciparum V1/3 it was 98 nM; in the assay with P. falciparum TM90C2B it was 104 nM; in the assay with P. falciparum HB3, 147 nM; with P. falciparum 3D7 it was 65 nM; with P. falciparum K1 it was 91 nM. Moreover, the IC50 in the assay with P. falciparum Dd2 is 73 nM; in [2], 459 nM; in the assay with P. falciparum NF54, 88 nM; with P. falciparum D6, 70 nM. Besides, the EC50 in [3] was in the range of 15 to 178 nM.

Values taken from US9428507B2, “Compounds for the treatment of malaria” (The Broad Institute, Inc., priority 2013, dated 2016).
